Reference: US20120157401A1, “METHODS FOR TREATING NEUROFIBROMATOSIS” (PTC Therapeutics, Inc., priority 2009, published 2012)
Like-named read-outs stand apart in the source and are kept apart here.

Columns and labels:
[1] = tested on: HT1080 cells; test: Cell cycle analysis by propidium iodide flow cytometry in HT1080 cells (percent cells in S-phase, Table 24); type: cell-based, human; conditions: for % Cells In S-Phase: HT1080 cells, 100 nM, 18 hours, normoxic, DMSO control […]
Method: Experimental Design. […] After treatment, cells were trypsinized, and stained with propidium iodide (PI) dye to measure DNA content of individual cells by flow cytometry. Output comprised histograms showing relative DNA content in 10,000 cells.
While compounds which cause greater than 20% of the cells to accumulate in S-phase at 100 nM are considered active, a larger percentage of cells may be accumulated in S-phase at lower doses depending on the Compound, as shown in FIG. 12 for example.

[2] = tested on: soluble VEGF121 and VEGF165 isoforms; test: VEGF inhibition EC50 by ELISA in the same human tumor cell lines (Table 25); type: cell-based; conditions: tumor cells; data not shown
Method: Results. […] The conditioned media were collected and assayed by ELISA for soluble VEGF121 and VEGF165 isoforms (as described in Section 9.1.1.1); results were calculated as percentage inhibition relative to vehicle treated controls. EC50 values were calculated from the concentration response curves.

[3] = tested on: hypoxia-inducible endogenous VEGF expression; test: Hypoxia-inducible endogenous VEGF expression ELISA in HeLa cells, dose-response EC50 (Table 3); type: cell-based, human; conditions: Homo sapiens
Outline: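 HeLa cells kept 24-48 h under hypoxia (1% O2, 5% CO2, nitrogen balance) with or without compound, e.g. seven concentrations; secreted VEGF in conditioned medium quantified by ELISA against a standard curve. Parallel Cell Titer Glo viability under identical conditions excludes cytotoxicity.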

[4] = HeLa cells, hypoxic conditions (1% O2), VEGF ELISA of conditioned media, read-out: ELISA EC50
[5] = HeLa cells, hypoxic conditions (1% O2), 24-48 hours, VEGF in conditioned media, read-out: ELISA EC50

Compound: COc1ccc(OC(=O)N2CCc3c([nH]c4ccc(Br)cc34)[C@@H]2c2ccc(Cl)cc2)cc1 [drawing 527]
- % Cells In S-Phase [1]: 26.4%

Compound: COc1ccc(C2c3[nH]c4ccc(Cl)cc4c3CCN2C(=O)Oc2ccc(Cl)cc2)cc1 (stereo not drawn)
- % Cells In S-Phase [1]: 15.3%

Compound: O=C(Oc1ccc(Cl)cc1)N1CCc2c([nH]c3ccc(Cl)cc23)C1c1ccc(OCCN2CCOCC2)cc1 (stereo not drawn) [drawing 535]
- % Cells In S-Phase [1]: 16.4%

Compound: C=CCOc1ccc([C@H]2c3[nH]c4ccc(Cl)cc4c3CCN2C(=O)Oc2ccc(Cl)cc2)cc1 [drawing 533]
- % Cells In S-Phase [1]: 17.2%

Compound: COc1ccc([C@H]2c3[nH]c4ccc(Cl)cc4c3CCN2C(=O)Oc2ccc(Cl)cc2)cc1 [drawing 526]
- % Cells In S-Phase [1]: 26.1%

Compound: COc1ccc(OC(=O)N2CCc3c([nH]c4ccc(Br)cc34)[C@H]2c2ccc(Cl)cc2)cc1
- % Cells In S-Phase [1]: 16.5%

Compound: O=C(Oc1ccc(Cl)cc1)N1CCc2c([nH]c3ccc(Cl)cc23)[C@@H]1c1ccc(OCC[C@H](O)CO)cc1 [drawing 529]
- % Cells In S-Phase [1]: 20.0%

Compound: COc1ccc([C@@H]2c3[nH]c4ccc(Cl)cc4c3CCN2C(=O)Oc2ccc(Cl)cc2)cc1
- % Cells In S-Phase [1]: 16.8%

Compound: NC(Cn1ccc(=O)c(O)c1)C(=O)O (stereo not drawn) [mimosine, reference compound]
- Effect on VEGF production [2]: does not delay or prolong the cell cycle or reduce VEGF production
- Effect on the cell cycle ([1]; tumor cells, data not shown): does not delay or prolong the cell cycle

Compound: O=C(Oc1ccc(F)cc1)N1CCc2c([nH]c3ccc(Cl)cc23)[C@@H]1c1ccc(OCC[C@H](O)CO)cc1 [drawing 537]
- % Cells In S-Phase [1]: 20.6%

Compound: O=C(Oc1ccc(Cl)cc1)N1CCc2c([nH]c3ccc(Cl)cc23)C1c1ccc(OCCN2CCCCC2)cc1 (stereo not drawn)
- % Cells In S-Phase [1]: 16.8%

Compound: O=C(Oc1ccc(F)cc1)N1CCc2c([nH]c3ccc(Cl)cc23)[C@H]1c1ccc(OCCCn2ccnn2)cc1
- % Cells In S-Phase [1]: 16.4%

Compound: O=C(Oc1ccc(F)cc1)N1CCc2c([nH]c3ccc(Cl)cc23)[C@@H]1c1ccc(OCCCn2ccnn2)cc1
- % Cells In S-Phase [1]: 25.7%

Compound: CCN(CC)CCCOc1ccc(C2c3[nH]c4ccc(Cl)cc4c3CCN2C(=O)Oc2ccc(Cl)cc2)cc1 (stereo not drawn) [Compound 946]
- EC50 ([3]; HeLa, read-out: ELISA EC50 μM): 0.008 to 0.04 µM

Compound: COc1ccc(OC(=O)N2CCc3c([nH]c4ccc(Cl)cc34)[C@@H]2c2ccc(OCC[C@@H](O)CO)cc2)cc1 [Compound 1361]
- EC50 [3, 4]: 0.008 to 0.04 µM

Compound: COc1ccc(C2c3[nH]c4ccc(Cl)cc4c3CCN2C(=O)Oc2ccc(Cl)cc2)c(F)c1 (stereo not drawn) [Compound 1269]
- EC50 [3, 5]: < 0.008 µM

Compound: COc1ccc(OC(=O)N2CCc3c([nH]c4ccc(Cl)cc34)C2c2ccc(OCC#N)cc2)cc1 (stereo not drawn) [Compound 1549]
- EC50 [3, 4]: 0.008 to 0.04 µM

Compound: COc1ccc(OC(=O)N2CCc3c([nH]c4ccc(Cl)cc34)C2c2ccc(S(C)(=O)=O)cc2)cc1 (stereo not drawn) [Compound 359]
- EC50 [3, 5]: 0.04 to 0.2 µM

Compound: COc1cc(C2c3[nH]c4ccc(Cl)cc4c3CCN2C(=O)Oc2ccccc2)ccc1OCCCn1nccn1 (stereo not drawn) [Compound 1145]
- EC50 [3, 5]: 0.008 to 0.04 µM

Compound: CC1(C)OC[C@H](CCOc2ccc([C@@H]3c4[nH]c5ccc(Cl)cc5c4CCN3C(=O)Oc3ccc(Cl)cc3)cc2)O1 [Compound 1331]
- EC50 [3, 4]: > 1 µM

Compound: O=C(Oc1ccc(F)cc1)N1CCc2c([nH]c3ccc(Cl)cc23)C1c1ccc(OCC(O)CO)cc1 (stereo not drawn) [Compound 627]
- EC50 [3, 5]: < 0.008 µM

Compound: CC(C)c1ccc(C2c3[nH]c4ccc(Br)cc4c3CCN2C(=O)Oc2ccc(Cl)cc2)cc1 (stereo not drawn) [Compound 354]
- EC50 [3, 5]: < 0.008 µM

Compound: Cc1ccc(OC(=O)N2CCc3c([nH]c4ccc(Cl)cc34)[C@@H]2c2ccc(OCCC(O)CNC(=O)C(C)C)cc2)cc1 (stereo partly drawn) [Compound 1640]
- EC50 [3, 4]: < 0.008 µM

Compound: CC(C)NCCCCCCOc1ccc(C2c3[nH]c4ccc(Cl)cc4c3CCN2C(=O)Oc2ccc(Cl)cc2)cc1 (stereo not drawn) [Compound 784]
- EC50 ([3]; HeLa, read-out: ELISA EC50 μM): < 0.008 µM

Compound: CCCOC(=O)NCC(O)CCOc1ccc([C@H]2c3[nH]c4ccc(Cl)cc4c3CCN2C(=O)Oc2ccc(C)cc2)cc1 (stereo partly drawn) [Compound 1644]
- EC50 [3, 4]: < 0.008 µM

Compound: O=C(Oc1ccc(Cl)cc1)N1CCc2c([nH]c3ccc(Cl)cc23)C1c1ccc(OCC(O)CN2CCOCC2)cc1 (stereo not drawn) [Compound 904]
- EC50 ([3]; HeLa, read-out: ELISA EC50 μM): < 0.008 µM

Compound: O=C(Oc1ccc(F)cc1)N1CCc2c([nH]c3ccc(Cl)cc23)C1c1ccc(OCCn2ccnc2)cc1 (stereo not drawn) [Compound 835]
- EC50 [3, 5]: 0.04 to 0.2 µM

Compound: O=C(Oc1ccc(Cl)cc1)N1CCc2c([nH]c3ccc(Cl)cc23)[C@H]1c1ccc(OCC[C@H](O)CO)cc1 [drawing 538]
- % Cells In S-Phase [1]: 17%

Compound: C=CCOc1ccc(C2c3[nH]c4ccc(Cl)cc4c3CCN2C(=O)Oc2ccc(OC)cc2)cc1 (stereo not drawn) [Compound 432]
- EC50 [3, 5]: < 0.008 µM

Compound: O=C(Oc1ccc(Cl)cc1)N1CCc2c([nH]c3ccc(Cl)cc23)C1c1ccc(OCC(O)Cn2ccnc2)cc1 (stereo not drawn) [Compound 867]
- EC50 [3, 5]: 0.008 to 0.04 µM

Compound: N#Cc1cn(CCOc2ccc(C3c4[nH]c5ccc(Cl)cc5c4CCN3C(=O)Oc3ccc(Cl)cc3)cc2)nc1N (stereo not drawn) [Compound 1421]
- EC50 [3, 4]: < 0.008 µM

Compound: CC1(C)OC[C@H](CCOc2ccc(C3c4[nH]c5ccc(Cl)cc5c4CCN3C(=O)Oc3ccc(F)cc3)cc2)O1 (stereo partly drawn) [Compound 1169]
- EC50 [3, 5]: < 0.008 µM

Compound: CN1CCCC(COc2ccc(C3c4[nH]c5ccc(Cl)cc5c4CCN3C(=O)Oc3ccc(Cl)cc3)cc2)C1 (stereo not drawn) [Compound 966]
- EC50 ([3]; HeLa, read-out: ELISA EC50 μM): 0.008 to 0.04 µM

Compound: CC(=O)NCC(O)COc1ccc(C2c3[nH]c4ccc(Cl)cc4c3CCN2C(=O)Oc2ccc(Cl)cc2)cc1 (stereo not drawn) [Compound 847]
- EC50 [3, 5]: 0.008 to 0.04 µM

Compound: C=CCOc1ccc([C@@H]2c3[nH]c4ccc(Cl)cc4c3CCN2C(=O)Oc2ccc(Cl)cc2)cc1
- % Cells In S-Phase [1]: 17.9%

Compound: Cc1cnc(NCCOc2ccc(C3c4[nH]c5ccc(Cl)cc5c4CCN3C(=O)Oc3ccc(F)cc3)cc2)s1 (stereo not drawn) [#838]
- EC50 [3, 5]: < 0.008 µM

Compound: COc1ccc(OC(=O)N2CCc3c([nH]c4ccc(Cl)cc34)[C@@H]2c2ccc(OCC[C@H](O)CO)cc2)cc1 [Compound 1300]
- EC50 [3, 5]: < 0.008 µM

Compound: O=C(Oc1ccc(Cl)cc1)N1CCc2c([nH]c3ccc(Cl)cc23)C1c1ccc(OCC(O)CO)cc1 (stereo not drawn) [Compound 629]
- EC50 [3, 5]: < 0.008 µM

Compound: CC(C)NCCCCOc1ccc(C2c3[nH]c4ccc(Cl)cc4c3CCN2C(=O)Oc2ccc(Cl)cc2)cc1 (stereo not drawn) [Compound 700]
- EC50 ([3]; HeLa, read-out: ELISA EC50 μM): 0.008 to 0.04 µM

Compound: COC(=O)[C@H]1CCCN1CCCOc1ccc(C2c3[nH]c4ccc(Cl)cc4c3CCN2C(=O)Oc2ccc(Cl)cc2)cc1 (stereo partly drawn) [Compound 1362]
- EC50 ([3]; HeLa, read-out: ELISA EC50 μM): < 0.008 µM

Compound: C=CC(=O)Nc1ccc(C2c3[nH]c4ccc(Cl)cc4c3CCN2C(=O)Oc2ccc(Cl)cc2)cc1 (stereo not drawn) [Compound 500]
- EC50 [3, 5]: 0.04 to 0.2 µM

Compound: O=C(Oc1ccc(F)cc1)N1CCc2c([nH]c3ccc(Cl)cc23)C1c1ccc(OCCCn2cncn2)cc1 (stereo not drawn) [Compound 892]
- EC50 [3, 5]: < 0.008 µM

Compound: COc1ccc(OC(=O)N2CCc3c([nH]c4ccc(Cl)cc34)C2c2ccc(OCCCN3CCN(C)CC3)cc2)cc1 (stereo not drawn) [Compound 1108]
- EC50 ([3]; HeLa, read-out: ELISA EC50 μM): 0.008 to 0.04 µM

Compound: O=C(Oc1ccc(Cl)cc1)N1CCc2c([nH]c3ccc(Cl)cc23)C1c1ccc(OCCCN2CCOCC2)cc1 (stereo not drawn) [Compound 894]
- EC50 ([3]; HeLa, read-out: ELISA EC50 μM): < 0.008 µM

Compound: O=C(COc1ccc(C2c3[nH]c4ccc(Cl)cc4c3CCN2C(=O)Oc2ccccc2)cc1)Oc1ccccc1 (stereo not drawn) [Compound 366]
- EC50 [3, 5]: > 1 µM

Compound: COc1ccc(OC(=O)N2CCc3c([nH]c4ccc(Cl)cc34)C2c2ccc(OC)c(F)c2)cc1 (stereo not drawn) [Compound 1197]
- EC50 [3, 5]: 0.008 to 0.04 µM

Compound: CN1CCC(COc2ccc(C3c4[nH]c5ccc(Cl)cc5c4CCN3C(=O)Oc3ccc(Cl)cc3)cc2)CC1 (stereo not drawn) [Compound 1099]
- EC50 ([3]; HeLa, read-out: ELISA EC50 μM): 0.008 to 0.04 µM

Compound: O=C(Oc1ccc(Cl)cc1)N1CCc2c([nH]c3ccc(Cl)cc23)[C@@H]1c1ccc(OCCCNC(CO)(CO)CO)cc1 [Compound 1255]
- EC50 ([3]; HeLa, read-out: ELISA EC50 μM): 0.04 to 0.2 µM

Compound: Cc1ccc(OC(=O)N2CCc3c([nH]c4ccc(Cl)cc34)C2c2ccc(OCCCN(C)C)cc2)cc1 (stereo not drawn) [Compound 502]
- EC50 ([3]; HeLa, read-out: ELISA EC50 μM): 0.04 to 0.2 µM

Compound: O=C(Oc1ccc(Cl)cc1)N1CCc2c([nH]c3ccc(Cl)cc23)C1c1ccc(OCCCn2ccnn2)cc1 (stereo not drawn) [Compound 417]
- EC50 [3, 5]: < 0.008 µM

Compound: CC(=O)OCC1OC(n2cc(CCOc3ccc([C@H]4c5[nH]c6ccc(Cl)cc6c5CCN4C(=O)Oc4ccc(Cl)cc4)cc3)nn2)C(OC(C)=O)C(OC(C)=O)C1OC(C)=O (stereo partly drawn) [Compound 1677]
- EC50 [3, 4]: 0.04 to 0.2 µM

Compound: COc1ccc(C2c3[nH]c4ccc(Cl)cc4c3CCN2C(=O)Oc2ccc(Cl)cc2)cc1OCCn1cncn1 (stereo not drawn) [Compound 1089]
- EC50 [3, 5]: 0.2 to 1 µM

Compound: O=C(NCC(O)CCOc1ccc([C@H]2c3[nH]c4ccc(Cl)cc4c3CCN2C(=O)Oc2ccc(Cl)cc2)cc1)c1ccncc1 (stereo partly drawn) [Compound 1627]
- EC50 [3, 4]: < 0.008 µM
